This passage reports outcome results from PubChem BioAssay AID1194 (EPA DSSTox, 2008).

Structures are written as SMILES. The source made the active and inactive calls.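 The calls were made as follows: active = chemicals rated mutagenic or weakly mutagenic in the Salmonella bacterial test by one literature review, or positive overall by another; inconclusive = no clear call, values can overlap the other calls; inactive = the rest.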

In this data set the test system is Salmonella typhimurium Ames mutagenicity, literature compiled. The data set is described as follows: DSSTox (CPDBAS) Carcinogenic Potency Database Salmonella Mutagenicity. The source says: The Carcinogenic Potency Database (CPDB) is a unique and widely used international resource of the results of over 6500 chronic, long-term animal cancer tests on over 1500 chemical substances. The CPDB provides easy access to the bioassay literature, with qualitative and quantitative analyses of both positive and negative experiments that have been published over the past 50 years in the general literature and by the National Cancer Institute/National Toxicology Program. The CPDB standardizes the diverse literature of cancer bioassays that vary widely in protocol, histopathological examination and nomenclature, and in the published author's choices of what information to provide in their papers. Results are reported in the CPDB for tests in rats, mice, hamsters, dogs, and nonhuman primates, and are based on the most positive result among all experiments for each sex-species. The DSSTox CPDBAS (all species) file incorporates data from the CPDB Summary Tables for the full list of over 1500 chemical substances tested in at least one species.
A chemical is classified within the CPDB as mutagenic, i.e. "active", in the Salmonella assay if it was evaluated overall as either "mutagenic" or "weakly mutagenic" by Zeiger [Zeiger, E. (1997) Genotoxicity Database. In: Gold and Zeiger, Eds. Handbook of Carcinogenic Potency and Genotoxicity Databases. Boca Raton, FL: CRC Press, pp. 687-729. http://potency.berkeley.edu/CRCbook.html] or as overall "positive" by the EPA Gene-Tox Program [Kier et al. (1986) Mutat. Res. 168: 69-240].

`Cc1ccc(N=C=O)cc1N=C=O`: the outcome was active.

For the compound `Cc1ccc(Cl)cc1N`, the outcome is “inactive; active”.

Consider `C=COC(C)=O`, for which the result was inactive.

With `COc1cc(-c2ccc(N)c(OC)c2)ccc1N`, the outcome is “active; inactive”.

Take `C[C@]12C=CC(=O)C=C1CC[C@@H]1[C@@H]2C(=O)C[C@@]2(C)[C@H]1CC[C@]2(O)C(=O)CO`: the outcome was active.

For the compound `CC(N)Cc1ccccc1` (centres undefined), the result was inactive.

In the case of `COc1cccc2c1cc([N+](=O)[O-])c1c(C(=O)O)cc3c(c12)OCO3`, the outcome was active.

For `CCC[CH2][Sn]([CH2]CCC)([CH2]CCC)[O][Sn]([CH2]CCC)([CH2]CCC)[CH2]CCC`, the result was inactive.

For the compound `Oc1c(Cl)cc(Cl)c(Cl)c1Cc1c(O)c(Cl)cc(Cl)c1Cl`, the outcome is “inactive; active”.

With `C=CCOC(=O)CC(C)C`, the outcome was “inactive; active”.

Consider `CC(N)=O`, for which the outcome was “inactive; active”.

For `CC(Cl)(Cl)Cl`, the result was active.

Consider `CC[C@H]1OC(=O)[C@H](C)[C@@H](O[C@H]2C[C@@](C)(OC)[C@@H](O)[C@H](C)O2)[C@H](C)[C@@H](O[C@@H]2O[C@H](C)C[C@H](N(C)C)[C@H]2O)[C@](C)(O)C[C@@H](C)C(=O)[C@H](C)[C@@H](O)[C@]1(C)O`, for which the outcome was inactive.

For the compound `Nc1ccc([N+](=O)[O-])cc1O`, the outcome was active.

For the compound `CC=O`, the outcome is “inactive; active”.

For the compound `CCOc1ccc(NC(C)=O)cc1N`, the outcome was active.

`O=C(N[C@H](CO)[C@H](O)c1ccc([N+](=O)[O-])cc1)C(Cl)Cl`: the result was inactive.

Regarding `COc1cc(-c2ccc(N=C=O)c(OC)c2)ccc1N=C=O`, the outcome was active.

For the compound `CC(CN1c2ccccc2Sc2ccccc21)N(C)C` (centres undefined), the outcome was inactive.

Take `O=Cc1ccco1`: the outcome is “active; inactive”.

As for `CC1CN(N=O)CC(C)O1` (centres undefined), the outcome was active.

For the compound `Oc1ccc2ccccc2c1N=Nc1ccccc1`, the outcome is “active; inactive”.

With `CN(N=O)C(=O)N[C@@H]1[C@@H](O)[C@H](O)[C@@H](CO)O[C@@H]1O`, the outcome was active.

For the compound `COc1ccc(N)c(C)c1`, the outcome is “active; inactive”.

Regarding `O=NN1CCCCCC1`, the result was active.

In the case of `FC(Cl)(Cl)Cl`, the outcome is “inactive; active”.

On to `C=CCO`, for which the outcome was inactive.

On to `CCOC(=O)CC(SP(=S)(OC)OC)C(=O)OCC` (centres undefined), for which the outcome was inactive.

Turning to `N=C1C=CC(=C(c2ccc(N)cc2)c2ccc(N)cc2)C=C1`, the result was active.

Consider `CN(C)c1ccc(Cc2ccc(N(C)C)cc2)cc1`, for which the result was active.

Consider `Clc1ccc(C(c2ccc(Cl)cc2)C(Cl)(Cl)Cl)cc1`, for which the outcome was inactive.

With `Cc1ncc[nH]1`, the outcome was inactive.

In the case of `Oc1ccc(Cl)cc1Cc1ccccc1`, the outcome is “inactive; active”.

Take `COc1c2occc2cc2ccc(=O)oc12`: the outcome was active.

For the compound `CC(=O)O[C@@H]1[C@@H](O)C2OC3C=C(C)C(=O)C(O)[C@@]3(CO)[C@]1(C)[C@]21CO1` (some centres undefined), the outcome was “inactive; active”.

With `CCCc1cc(=O)[nH]c(=S)[nH]1`, the outcome is “inactive; active”.

For the compound `ClCCOCCCl`, the outcome was active.

In the case of `COc1cccc2c1C(=O)c1c(O)c3c(c(O)c1C2=O)C[C@@](O)(C(=O)CO)C[C@@H]3O[C@H]1C[C@H](N)[C@H](O)[C@H](C)O1`, the result was active.

Regarding `O=NN1CCCC1`, the outcome was active.

Turning to `O=[N+]([O-])c1ccc(-c2nc(NCCO)c3ccccc3n2)s1`, the outcome was active.

With `C=Cc1ccccc1`, the outcome is “active; inactive”.

For `Nc1nc(N)nc(-c2ccc([N+](=O)[O-])o2)n1`, the outcome was active.

On to `O=[N+]([O-])c1cc([As](=O)(O)O)ccc1O`, for which the outcome was inactive.

With `COc1cc2c(c3oc4cccc(O)c4c(=O)c13)C1C=COC1O2` (centres undefined), the outcome was “active; inactive”.

As for `S=c1nc[nH]c2nc[nH]c12`, the result was active.

Take `CN(C)P(=O)(N(C)C)N(C)C`: the outcome was inactive.

As for `Cc1cc(-c2ccc(N)c(C)c2)ccc1N`, the outcome is “active; inactive”.

Consider `CN(C#N)N=O`, for which the outcome is “active; inactive”.

With `ClC(Cl)Cl`, the outcome was inactive.

`O.O=S(=O)([O-])[O-].[Mn+2]`: the outcome was “inactive; active”.

Take `CC(=O)OC[C@]12C[C@H](OC(=O)CC(C)C)C(C)=C[C@H]1O[C@@H]1[C@H](O)[C@@H](OC(C)=O)[C@@]2(C)C12CO2` (some centres undefined): the result was inactive.

For `O=C/C(Cl)=C(/Cl)C(=O)O`, the result was active.

Regarding `CN(N=O)c1cccnc1`, the outcome was “inactive; active”.

As for `Nc1ccc(-c2ccccc2)cc1`, the result was active.

For `O=[N+]([O-])c1ccc2c3c(cccc13)CC2`, the result was active.

As to `C=CC=O`, the outcome was “active; inactive”.

With `CCn1cc(C(=O)O)c(=O)c2ccc(C)nc21`, the outcome was inactive.

On to `O=C(O)c1ccccc1-c1c2cc(I)c(=O)c(I)c-2oc2c(I)c(O)c(I)cc12`, for which the outcome was inactive.

On to `OC[C@@H](O)[C@@H](O)[C@H](O)[C@H](O)CO`, for which the outcome was “inactive; active”.

Take `CC1CCC(C(C)C)C(O)C1` (centres undefined): the outcome is “inactive; active”.

Take `Nc1ccccc1-c1ccccc1`: the outcome was active.

For the compound `C1CNCCN1`, the outcome was inactive.

With `O=C(O)C1[O][Sb]2[O]C(=O)C([O]2)C(C(=O)O)[O][Sb]2[O]C(=O)C1[O]2` (centres undefined), the result was inactive.

Take `OCCBr`: the outcome was active.

`CC(=O)Nc1nc(-c2ccc([N+](=O)[O-])o2)cs1`: the outcome was “active; inactive”.

Regarding `CCOP(=S)(OCC)Oc1cc(C)nc(C(C)C)n1`, the outcome was “inactive; active”.

On to `CC1=CC(=O)CC(C)(C)C1`, for which the outcome was “inactive; active”.

For the compound `CN(Cc1cnc2nc(N)nc(N)c2n1)c1ccc(C(=O)N[C@@H](CCC(=O)O)C(=O)O)cc1`, the outcome was inactive.

Take `C=CC(=O)NCO`: the result was inactive.

`[O]=[Cr](=[O])([OH])[O][Cr](=[O])(=[O])[OH]`: the outcome was active.

On to `O=C1c2ccccc2C(=O)c2ccccc21`, for which the outcome was “active; inactive”.

For `CCOC(=O)CBr`, the result was active.

For the compound `CCCl`, the result was active.

Turning to `O=S1(=O)OCCO1`, the result was inactive.

Turning to `ClCC(Cl)CCl`, the outcome is “active; inactive”.

Consider `O=CC1CO1` (centres undefined), for which the result was active.

Consider `c1ccc(N=Nc2ccccc2)cc1`, for which the outcome was active.

Turning to `CC1CO1` (centres undefined), the outcome was active.

With `C1COCCO1`, the outcome was “inactive; inconclusive”.

For the compound `COP(=O)(OC)O/C(=C\Cl)c1cc(Cl)c(Cl)cc1Cl`, the outcome was “inactive; active”.

In the case of `CS(=O)(=O)OCCCCOS(C)(=O)=O`, the outcome was active.

In the case of `O=Nc1ccc(NO)cc1`, the outcome was “active; inactive”.

For the compound `NC(=S)Nc1ccccc1`, the result was inactive.

Turning to `CC(O)CO` (centres undefined), the result was inactive.

Take `Nc1ccccc1N`: the result was active.

Turning to `O=CNc1nc(-c2ccc([N+](=O)[O-])o2)cs1`, the outcome was “active; inactive”.

As to `COC(C)(C)C`, the outcome is “inactive; active”.

Turning to `S=C([S-])NCCNC(=S)[S-].[Zn+2]`, the outcome is “inactive; active”.

In the case of `O=[N+]([O-])c1ccc(Nc2ccc(Nc3ccccc3)c(S(=O)(=O)O)c2)c([N+](=O)[O-])c1`, the outcome is “active; inactive”.

Regarding `OCCN(CCO)c1nc(-c2cccs2)nc2ccccc12`, the outcome was inactive.

As for `c1ccc2c(c1)ccc1cc3c(ccc4ccccc43)cc12`, the result was active.

As to `CN(C)c1ccc(N=NS(=O)(=O)O)cc1`, the outcome was “active; inactive”.

With `S=C1NCCN1`, the result was active.

Turning to `O=C1C2CC=CCC2C(=O)N1SC(Cl)(Cl)Cl` (centres undefined), the outcome was active.

`Cc1nc(N)cc2[nH]c3ccccc3c12`: the result was active.

`COc1ccc([N+](=O)[O-])cc1N`: the outcome was “active; inactive”.

On to `COCCl`, for which the outcome is “inactive; active”.

`C=C1C(CCl)(CCl)C2(Cl)C(Cl)C(Cl)C1(Cl)C2(Cl)Cl` (centres undefined): the outcome was “active; inactive”.

For `CCCC[N+](=O)[O-]`, the outcome was “inactive; active”.

`CCOc1ccc(NC(C)=O)cc1`: the outcome is “active; inactive”.

For `ClC(Cl)(Cl)c1ccccc1`, the result was active.

With `O=C(OOC(=O)c1ccccc1)c1ccccc1`, the outcome is “inactive; active”.

As to `CC(=O)NCc1nc(-c2ccc([N+](=O)[O-])o2)no1`, the outcome was active.

On to `ClCc1cccnc1`, for which the outcome is “active; inactive”.
